Data taken from EP0703222A1, “3-AMINOAZEPINE COMPOUND AND PHARMACEUTICAL USE THEREOF” (YOSHITOMI PHARMACEUTICAL INDUSTRIES, LTD., priority 1993, dated 1994).

Experiments:
[1] = biological target: T1, CCK-A receptor (Rattus norvegicus, UniProt P30551); assay: CCK-A receptor binding test (pancreas); details: for Ki: rat pancreas membranes, 125I-CCK-8, 20°C, 30 minutes, read-out: binding affinity (Ki,nM) CCK-A; for affinity for CCK-A receptor (in words): summary of the binding results in the text
T1 construct: The whole pancreas was removed from a male rat; from tissue; host or cells: rat pancreas membrane homogenate
T1 sequence (P30551 1-444): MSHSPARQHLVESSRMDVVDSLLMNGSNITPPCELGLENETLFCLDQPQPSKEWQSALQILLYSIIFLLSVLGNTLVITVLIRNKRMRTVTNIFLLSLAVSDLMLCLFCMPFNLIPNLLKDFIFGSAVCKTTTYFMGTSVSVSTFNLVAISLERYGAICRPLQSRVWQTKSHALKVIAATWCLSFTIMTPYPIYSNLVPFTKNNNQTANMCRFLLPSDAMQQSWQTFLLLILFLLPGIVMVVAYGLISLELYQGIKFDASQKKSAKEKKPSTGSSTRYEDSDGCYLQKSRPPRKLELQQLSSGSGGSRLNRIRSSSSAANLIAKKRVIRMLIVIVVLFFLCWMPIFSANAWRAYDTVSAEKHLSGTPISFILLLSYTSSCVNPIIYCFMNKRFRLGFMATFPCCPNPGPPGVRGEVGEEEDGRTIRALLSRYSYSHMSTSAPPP
Protocol: Experimental Example 1 : CCK-A receptor binding test (pancreas)
The whole pancreas was removed from a male rat. The fat tissues were removed and the pancreas was homogenized (Brinkman Polytron PT20) in 50 mM Tris hydrochloric acid (pH 7.5). The homogenate was filtered through a nylon cloth (120 mesh) and centrifuged at 50,000 × g for 12 minutes. The obtained sediment was homogenized in Tris buffer as in the above and centrifuged. The sediment was suspended in a buffer for binding assay [50 mM Tris-HCl (pH 7.2) containing 5 mM magnesium chloride, 5 mM dithiothreitol, 2 mg/ml bovine serum albumin, 0.1 mg/ml bacitracin and 0.14 mg/ml trypsin inhibitor (soybean)] and used as a receptor source.
(§1) For binding assay, 50 µl of a buffer (for total binding), unlabeled CCK-8 sulfate (for nonspecific binding) having a final concentration of 1 5M or a test compound (for determining inhibition of ¹²⁵I-CCK binding) and 50 µl of ¹²⁵I-CCK-8 (63-67 TBq/mmol, 40,000-50,000 cpm) were added to a membrane suspension (450 µl, containing 100 µg protein). The reaction mixture was incubated at 20°C for 30 minutes, filtered by suction through a glass fiber filter (Whatman GF/B), and immediately thereafter washed 3 times with ice-cooled Tris buffer (2.5 ml). The radioactive concentration on the filter was measured.
(§2) Inhibition (%) = 100 -((binding when compound added - nonspecific binding))/((total binding - nonspecific binding))× 100 [formula]

[2] = biological target: T2, CCK-B receptor (Rattus norvegicus, UniProt P30553); assay: CCK-B receptor binding test (brain); details: for Ki: rat cerebral cortex membranes, 125I-CCK-8, 20°C, 30 minutes, read-out: binding affinity (Ki,nM) CCK-B; for selectivity (A/B): ratio CCK-A / CCK-B binding affinity
T2 construct: cerebral cortex from rat was prepared and suspended in a buffer; from tissue; host or cells: rat cerebral cortex membrane suspension
T2 sequence (P30553 1-452): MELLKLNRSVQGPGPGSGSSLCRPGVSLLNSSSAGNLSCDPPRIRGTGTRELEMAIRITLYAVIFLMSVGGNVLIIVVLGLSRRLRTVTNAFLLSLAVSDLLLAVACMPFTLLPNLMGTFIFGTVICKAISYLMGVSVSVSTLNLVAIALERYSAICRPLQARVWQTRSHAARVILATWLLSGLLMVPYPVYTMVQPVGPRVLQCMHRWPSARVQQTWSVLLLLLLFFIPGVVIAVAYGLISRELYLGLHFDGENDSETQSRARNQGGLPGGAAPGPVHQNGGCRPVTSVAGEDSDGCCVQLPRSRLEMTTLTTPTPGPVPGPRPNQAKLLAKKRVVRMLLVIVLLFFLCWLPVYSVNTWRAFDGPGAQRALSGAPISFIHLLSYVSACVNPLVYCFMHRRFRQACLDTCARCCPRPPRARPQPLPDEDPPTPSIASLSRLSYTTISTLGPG
Protocol: Experimental Example 2 : CCK-B receptor binding test (brain)
as §1, with “In the case of the central nervous system, cerebral cortex from rat was prepared and suspended in a buffer, pH 6.5, containing 5 mM magnesium chloride, 1 mM EGTA [ethylene glycol bis(2-aminoethylether)tetraacetic acid], 360 mM sodium chloride, 15 mM potassium chloride, 20 mM HEPES (N-2-hydroxyethylpiperazine-N'-2-ethanesulfonic acid) and 0.25 mg/ml bacitracin. For” for “For”, “µM” for “5M”, “40,000 - 50,000” for “40,000-50,000”
as §2

| Compound | Ki [1] [nM] | affinity for CCK-A receptor (in words) [1] | Ki [2] [nM] | selectivity (A/B) [2] |
| --- | --- | --- | --- | --- |
| CN1C(=O)C(NC(=O)c2cc3ccccc3[nH]2)C=C(c2ccccc2)c2ccccc21 (single isomer, unassigned; (+)) [Example 36, (+)-N-(1-methyl-2-oxo-5-phenyl-2,3-dihydro-1H-1-benzazepin-3-yl)-2-indolecarboxamide] | 4.7 | strong, selective affinity for CCK-A receptor | > 1000 | <0.0047 |
| Cc1ccccc1C(=O)CN1C(=O)C(NC(=O)c2cc3ccccc3[nH]2)C=C(c2ccccc2)c2ccccc21 (single isomer, unassigned; (+)) [Example 81, (+)-N-(1-(2'-methylphenacyl)-2-oxo-5-phenyl-2,3-dihydro-1H-1-benzazepin-3-yl)-2-indole carboxamide] | 42 | strong, selective affinity for CCK-A receptor | > 1000 | <0.042 |
| CCOC(=O)CN1C(=O)C(NC(=O)Nc2cccc(C)c2)C=C(c2ccccc2)c2ccccc21 (single isomer, unassigned; (-)) [Example 46, (-)-1-(1-ethoxycarbonylmethyl-2-oxo-5-phenyl-2,3-dihydro-1H-1-benzazepin-3-yl)-3-(3-methylphenyl)urea] | 100 |  | 0.87 | 110 |
| CCOC(=O)CN1C(=O)C(NC(=O)Nc2ccc(C)cc2)C=C(c2ccccc2)c2ccccc21 (single isomer, unassigned; (-)) [Example 48, (-)-1-(1-ethoxycarbonylmethyl-2-oxo-5-phenyl-2,3-dihydro-1H-1-benzazepin-3-yl)-3-(4-methylphenyl)urea] | 210 |  | 2.1 | 100 |
| CCOC(=O)CN1C(=O)C(NC(=O)Nc2cccc(OC)c2)C=C(c2ccccc2)c2ccccc21 (single isomer, unassigned; (-)) [Example 52, (-)-1-(1-ethoxycarbonylmethyl-2-oxo-5-phenyl-2,3-dihydro-1H-1-benzazepin-3-yl)-3-(3-methoxyphenyl)urea] | 110 |  | 0.92 | 120 |
| Cc1ccc(NC(=O)NC2C=C(c3ccccc3)c3ccccc3N(CC(=O)c3ccccc3C)C2=O)cc1 (single isomer, unassigned; (-)) [Example 64, (-)-1-(1-(2'-methylphenacyl)-2-oxo-5-phenyl-2,3-dihydro-1H-1-benzazepin-3-yl)-3-(4-methylphenyl)urea] | 200 |  | 1.1 | 180 |
| Cc1ccccc1NC(=O)NC1C=C(c2ccccc2)c2ccccc2N(CC(=O)c2ccccc2C)C1=O (single isomer, unassigned; (-)) [Example 66, (-)-1-(1-(2'-methylphenacyl)-2-oxo-5-phenyl-2,3-dihydro-1H-1-benzazepin-3-yl)-3-(2-methylphenyl)urea] | 310 |  | 2.5 | 124 |
| COc1ccc(NC(=O)NC2C=C(c3ccccc3)c3ccccc3N(CC(=O)c3ccccc3C)C2=O)cc1 (single isomer, unassigned; (-)) [Example 68, (-)-1-(4-methoxyphenyl)-3-(1-(2'-methylphenacyl)-2-oxo-5-phenyl-2,3-dihydro-1H-1-benzazepin-3-yl)urea] | 150 |  | 1.1 | 140 |
| Cc1ccccc1C(=O)CN1C(=O)C(NC(=O)Nc2ccccc2Cl)C=C(c2ccccc2)c2ccccc21 (single isomer, unassigned; (-)) [Example 74, (-)-1-(2-chlorophenyl)-3-(1-(2'-methylphenacyl)-2-oxo-5-phenyl-2,3-dihydro-1H-1-benzazepin-3-yl)urea] | 290 |  | 2.4 | 120 |
| Cc1cccc(NC(=O)N[C@@H]2N=C(c3ccccc3)c3ccccc3N(C)C2=O)c1 [Example L-365260, (R)-N-(2,3-dihydro-1-methyl-2-oxo-5-phenyl-1H-1,4-benzodiazepin-3-yl)-N'-(3-methylphenyl)urea, reference compound] | 390 |  | 19 | 21 |
